Source: publication PMC7856035 (Neuropharmacology, 2020)

What was measured:
5-HT4 receptor [1] = biological target: T1, 5-HT4 receptor (Rattus norvegicus, UniProt Q62758); test: block of […] 5-HT-induced PKA-RII phosphorylation in rat DRG neurons; format: cell-based
5-HT4 receptor [2] = biological target: T1, 5-HT4 receptor; test: agonist-induced PKA-RII phosphorylation in rat DRG neurons, reduced by GR113808; format: cell-based

T1 sequence (Q62758 whole entry): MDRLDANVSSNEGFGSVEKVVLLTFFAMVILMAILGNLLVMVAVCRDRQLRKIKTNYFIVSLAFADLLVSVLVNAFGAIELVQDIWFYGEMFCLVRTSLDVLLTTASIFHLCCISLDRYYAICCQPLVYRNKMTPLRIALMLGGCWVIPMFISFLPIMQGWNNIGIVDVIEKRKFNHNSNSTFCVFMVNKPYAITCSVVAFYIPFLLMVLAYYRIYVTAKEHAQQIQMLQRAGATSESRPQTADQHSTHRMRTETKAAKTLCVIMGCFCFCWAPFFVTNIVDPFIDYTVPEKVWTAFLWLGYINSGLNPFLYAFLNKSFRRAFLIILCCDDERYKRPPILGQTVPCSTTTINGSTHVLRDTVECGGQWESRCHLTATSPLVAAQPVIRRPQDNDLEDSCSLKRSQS

IC50 (5-HT4 receptor [1]) | EC50 (5-HT4 receptor [2]) | SMILES
5.55 nM | – | Cn1cc(C(=O)OCC2CCN(CCNS(C)(=O)=O)CC2)c2ccccc21 [GR, GR113808]
– | 10.2 nM | COCCCN1CCC(NC(=O)c2cc(Cl)c(N)c3c2OCC3)CC1 [Ppr, prucalopride]
